Experimental findings from patent US20260274807A1 (University of Health Sciences and Pharmacy in St. Louis, priority 2023, published 2026) are described below.

In experiment [1] the target is T1, ERRα (Homo sapiens, UniProt P11474).
T1 construct: expressed in transfected cells; host or cells: HEK293
T1 sequence (P11474 1-423): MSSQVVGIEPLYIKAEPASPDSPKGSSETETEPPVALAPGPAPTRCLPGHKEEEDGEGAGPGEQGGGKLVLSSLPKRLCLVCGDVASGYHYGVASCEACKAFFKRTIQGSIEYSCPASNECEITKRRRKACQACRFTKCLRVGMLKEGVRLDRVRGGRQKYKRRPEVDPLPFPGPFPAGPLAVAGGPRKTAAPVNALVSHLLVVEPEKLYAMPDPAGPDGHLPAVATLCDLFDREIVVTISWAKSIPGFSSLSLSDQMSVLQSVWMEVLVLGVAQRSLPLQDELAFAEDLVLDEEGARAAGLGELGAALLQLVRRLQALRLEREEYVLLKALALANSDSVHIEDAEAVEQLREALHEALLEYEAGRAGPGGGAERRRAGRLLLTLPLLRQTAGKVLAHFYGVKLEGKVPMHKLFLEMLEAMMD
Description: ERRE luciferase reporter assay in HEK293 cells transfected with pcDNA3.1 ERRα. As to conditions: HEK293 cells transfected with ERRE reporter construct and pcDNA3.1 ERRα; compound for 24 hours; luciferase activity. In kind it is cell-based. Also on record: key to EC50 (ERRα) μM: * <1 μM; ** 1-5 μM; *** >5 μM; i.a. (inactive). The method, then:
(§1) HEK293 cells were maintained in Dulbecco's modified Eagles medium (DMEM) supplemented with 10% fetal bovine serum at 37° C. under […]. […] Cells were transfected with ERRE reporter construct and pcDNA3.1 ERRα or ERRγ. Twenty-four-hours post-transfection, the cells were treated with vehicle or compound (various concentrations) for 24 hours (4 wells per dose). Luciferase activity was measured using the One-Glo Tox luciferase reporter assay system (Promega) and EC50s were calculated using GraphPad Prism software.

Experiment [2] deals with T2, ERRγ (Homo sapiens, UniProt P62508).
T2 construct: expressed in transfected cells; host or cells: HEK293
T2 sequence (P62508 1-458): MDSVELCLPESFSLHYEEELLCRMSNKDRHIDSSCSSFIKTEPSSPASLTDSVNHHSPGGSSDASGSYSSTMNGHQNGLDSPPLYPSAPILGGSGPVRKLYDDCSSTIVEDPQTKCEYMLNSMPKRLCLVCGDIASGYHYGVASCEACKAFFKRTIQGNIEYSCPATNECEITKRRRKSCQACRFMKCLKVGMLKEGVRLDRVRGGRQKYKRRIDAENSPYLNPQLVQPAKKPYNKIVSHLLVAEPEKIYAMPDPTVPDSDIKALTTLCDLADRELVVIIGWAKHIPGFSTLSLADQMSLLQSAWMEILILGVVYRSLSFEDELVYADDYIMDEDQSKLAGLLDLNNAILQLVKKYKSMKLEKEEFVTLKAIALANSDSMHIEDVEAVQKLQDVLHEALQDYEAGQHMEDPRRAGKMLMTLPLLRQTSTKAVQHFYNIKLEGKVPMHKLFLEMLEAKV
Description: ERRE luciferase reporter assay in HEK293 cells transfected with pcDNA3.1 ERRγ. As to conditions: HEK293 cells transfected with ERRE reporter construct and pcDNA3.1 ERRγ; compound for 24 hours; luciferase activity. The class given is cell-based. Also on record: key to EC50 (ERRγ) μM: * <1 μM; ** 1-5 μM; *** >5 μM; i.a. (inactive). As for the experimental part:
as §1
A general note: A reporter such as luciferase makes a cellular process visible.

For the compound `FC(F)(F)c1ccc(-c2nnc(-c3ccccc3)o2)cc1` [Entry 43, 2-phenyl-5-(4-(trifluoromethyl)phenyl)-1,3,4-oxadiazole], the EC50 in experiment [1] and in experiment [2] was 1000 to 5000 nM each time.
In the case of `FC(F)(F)c1ccc(-c2nnc(-c3ccco3)o2)cc1` [Entry 44, 2-(furan-2-yl)-5-(4-(trifluoromethyl)phenyl)-1,3,4-oxadiazole], the 50% effective concentration (EC50) in experiment [1] and in experiment [2] was 1000 to 5000 nM in each case.
As for `Cc1ccc(-c2nnc(-c3ccc(C(F)(F)F)cc3)o2)o1` [Entry 45, 2-(5-methylfuran-2-yl)-5-(4-(trifluoromethyl)phenyl)-1,3,4-oxadiazole], the EC50 in experiment [1] is 1000 to 5000 nM; in experiment [2], greater than 5000 nM.
For the compound `FC(F)(F)c1ccc(-c2nnc(-c3cccs3)o2)cc1` [Entry 46, 2-(thiophen-2-yl)-5-(4-(trifluoromethyl)phenyl)-1,3,4-oxadiazole], the EC50 in experiment [1] and in experiment [2] was 1000 to 5000 nM throughout.
Turning to `FC(F)(F)c1ccc(-c2nnc(-c3ccnc4ccccc34)o2)cc1` [Entry 47, 2-(quinolin-4-yl)-5-(4-(trifluoromethyl)phenyl)-1,3,4-oxadiazole], the EC50 in experiment [1] and in experiment [2] was greater than 5000 nM throughout.
Take `FC(F)(F)c1ccc(-c2nnc(-c3ccc4ccccc4n3)o2)cc1` [Entry 48, 2-(quinolin-2-yl)-5-(4-(trifluoromethyl)phenyl)-1,3,4-oxadiazole]: the “EC50 (ERRα) μM” value in experiment [1] is given as “i.a”. Besides, in experiment [2], the “EC50 (ERRγ) μM” value was “i.a”.
For the compound `FC(F)(F)c1ccc(-c2nnc(-c3ccccn3)o2)cc1` [Entry 49, 2-(pyridin-2-yl)-5-(4-(trifluoromethyl)phenyl)-1,3,4-oxadiazole], the EC50 in experiment [1] and in experiment [2] was less than 1000 nM throughout.
As for `O=[N+]([O-])c1ccccc1-c1nnc(-c2ccc(C(F)(F)F)cc2)o1` [Entry 50, 2-(2-nitrophenyl)-5-(4-(trifluoromethyl)phenyl)-1,3,4-oxadiazole], the EC50 in experiment [1] and in experiment [2] was 1000 to 5000 nM in each case.
Consider `O=[N+]([O-])c1cccc(-c2nnc(-c3ccc(C(F)(F)F)cc3)o2)c1` [Entry 51, 2-(3-nitrophenyl)-5-(4-(trifluoromethyl)phenyl)-1,3,4-oxadiazole], for which the “EC50 (ERRα) μM” value in experiment [1] is listed as “i.a”. For the same compound, the “EC50 (ERRγ) μM” value in experiment [2] was “i.a”.
Take `O=[N+]([O-])c1ccc(-c2nnc(-c3ccc(C(F)(F)F)cc3)o2)cc1` [Entry 52, 2-(4-nitrophenyl)-5-(4-(trifluoromethyl)phenyl)-1,3,4-oxadiazole]: the EC50 in experiment [1] and in experiment [2] was greater than 5000 nM each time.
As to `FC(F)(F)c1ccc(-c2nnc(-c3ccccc3Cl)o2)cc1` [Entry 53, 2-(2-chlorophenyl)-5-(4-(trifluoromethyl)phenyl)-1,3,4-oxadiazole], the EC50 in experiment [1] is less than 1000 nM; in experiment [2], 1000 to 5000 nM.
For `COc1cccc(-c2nnc(-c3ccc(C(F)(F)F)cc3)o2)c1` [Entry 54, 2-(3-methoxyphenyl)-5-(4-(trifluoromethyl)phenyl)-1,3,4-oxadiazole] the same measures were greater than 5000 nM and greater than 5000 nM.
For `COc1ccc(-c2nnc(-c3ccc(C(F)(F)F)cc3)o2)cc1` [Entry 55, 2-(4-methoxyphenyl)-5-(4-(trifluoromethyl)phenyl)-1,3,4-oxadiazole], in experiment [1], the “EC50 (ERRα) μM” value is “i.a”. In addition, the “EC50 (ERRγ) μM” value in experiment [2] was “i.a”.
`FC(F)(F)c1cccc(-c2nnc(-c3ccccc3)o2)c1` [Entry 56, 2-phenyl-5-(3-(trifluoromethyl)phenyl)-1,3,4-oxadiazole]: the EC50 in experiment [1] and in experiment [2] was less than 1000 nM throughout.
As for `FC(F)(F)c1cccc(-c2nnc(-c3ccco3)o2)c1` [Entry 57, 2-(furan-2-yl)-5-(3-(trifluoromethyl)phenyl)-1,3,4-oxadiazole], the EC50 in experiment [1] is less than 1000 nM; in experiment [2] it was 1000 to 5000 nM.
Consider `FC(F)(F)c1cccc(-c2nnc(-c3cccs3)o2)c1` [Entry 58, 2-(thiophen-2-yl)-5-(3-(trifluoromethyl)phenyl)-1,3,4-oxadiazole], for which the EC50 in experiment [1] and in experiment [2] was less than 1000 nM each time.
Regarding `FC(F)(F)c1cccc(-c2nnc(-c3ccnc4ccccc34)o2)c1` [Entry 59, 2-(quinolin-4-yl)-5-(3-(trifluoromethyl)phenyl)-1,3,4-oxadiazole], the EC50 in experiment [1] is less than 1000 nM; in experiment [2], 1000 to 5000 nM.
In the case of `FC(F)(F)c1cccc(-c2nnc(-c3ccc4ccccc4n3)o2)c1` [Entry 60, 2-(quinolin-2-yl)-5-(3-(trifluoromethyl)phenyl)-1,3,4-oxadiazole], the EC50 in experiment [1] and in experiment [2] was 1000 to 5000 nM in each case.
For the compound `FC(F)(F)c1cccc(-c2nnc(-c3ccccn3)o2)c1` [Entry 61, 2-(pyridin-2-yl)-5-(3-(trifluoromethyl)phenyl)-1,3,4-oxadiazole], the EC50 in experiment [1] and in experiment [2] was less than 1000 nM each time.
For `O=[N+]([O-])c1ccccc1-c1nnc(-c2cccc(C(F)(F)F)c2)o1` [Entry 62, 2-(2-nitrophenyl)-5-(3-(trifluoromethyl)phenyl)-1,3,4-oxadiazole], the EC50 in experiment [1] and in experiment [2] was 1000 to 5000 nM throughout.
Consider `O=[N+]([O-])c1cccc(-c2nnc(-c3cccc(C(F)(F)F)c3)o2)c1` [Entry 63, 2-(3-nitrophenyl)-5-(3-(trifluoromethyl)phenyl)-1,3,4-oxadiazole], for which the concentration giving a half-maximal response (EC50) in experiment [1] is 1000 to 5000 nM; in experiment [2] it was greater than 5000 nM.
Take `FC(F)(F)c1cccc(-c2nnc(-c3ccccc3Cl)o2)c1` [Entry 65, 2-(2-chlorophenyl)-5-(3-(trifluoromethyl)phenyl)-1,3,4-oxadiazole]: the EC50 in experiment [1] was 1000 to 5000 nM; in experiment [2] it was greater than 5000 nM.
Take `COc1cccc(-c2nnc(-c3cccc(C(F)(F)F)c3)o2)c1` [Entry 66, 2-(3-methoxyphenyl)-5-(3-(trifluoromethyl)phenyl)-1,3,4-oxadiazole]: the EC50 in experiment [1] and in experiment [2] was 1000 to 5000 nM throughout.
Turning to `Nc1ccccc1-c1nnc(-c2ccccc2)o1` [Entry 68, 2-(5-phenyl-1,3,4-oxadiazol-2-yl)aniline], the EC50 in experiment [1] and in experiment [2] was 1000 to 5000 nM each time.
With `Nc1cccc(-c2nnc(-c3ccccc3)o2)c1` [Entry 69, 3-(5-phenyl-1,3,4-oxadiazol-2-yl)aniline], the EC50 in experiment [1] and in experiment [2] was less than 1000 nM each time.
Turning to `Nc1ccc(-c2nnc(-c3ccccc3)o2)cc1` [Entry 70, 4-(5-phenyl-1,3,4-oxadiazol-2-yl)aniline], the EC50 in experiment [1] and in experiment [2] was less than 1000 nM each time.
Regarding `COc1ccc(-c2nnc(-c3ccccc3)o2)c(N)c1` [Entry 71, 5-methoxy-2-(5-phenyl-1,3,4-oxadiazol-2-yl)aniline], the EC50 in experiment [1] and in experiment [2] was less than 1000 nM each time.
On to `Nc1cc(Br)ccc1-c1nnc(-c2ccccc2)o1` [Entry 72, 5-bromo-2-(5-phenyl-1,3,4-oxadiazol-2-yl)aniline], for which the EC50 in experiment [1] was less than 1000 nM; in experiment [2], 1000 to 5000 nM.
On to `COc1ccc(-c2nnc(-c3ccccc3N)o2)cc1` [Entry 74, 2-(5-(4-methoxyphenyl)-1,3,4-oxadiazol-2-yl)aniline], for which the EC50 in experiment [1] and in experiment [2] was less than 1000 nM each time.
As for `CC(C)(C)c1ccc(-c2nnc(-c3ccccc3N)o2)cc1` [Entry 75, 2-(5-(4-(tert-butyl)phenyl)-1,3,4-oxadiazol-2-yl)aniline], the concentration for a half-maximal effect (EC50) in experiment [1] and in experiment [2] was less than 1000 nM throughout.
Turning to `Cc1ccc(-c2nnc(-c3ccccc3[N+](=O)[O-])o2)o1` [Entry 76, 2-(5-methylfuran-2-yl)-5-(2-nitrophenyl)-1,3,4-oxadiazole], the EC50 in experiment [1] and in experiment [2] was 1000 to 5000 nM throughout.
For the compound `O=[N+]([O-])c1ccccc1-c1nnc(-c2ccccc2)o1` [Entry 80, 2-(2-nitrophenyl)-5-phenyl-1,3,4-oxadiazole], the EC50 in experiment [1] and in experiment [2] was 1000 to 5000 nM in each case.
Regarding `O=[N+]([O-])c1cccc(-c2nnc(-c3ccccc3)o2)c1` [Entry 81, 2-(3-nitrophenyl)-5-phenyl-1,3,4-oxadiazole], the EC50 in experiment [1] and in experiment [2] was 1000 to 5000 nM each time.

As usually defined, the EC50 is the concentration giving half of the maximal effect.
